Reference: US12036221B2, “Ketamine or dextromethorphan formulations and methods of use” (West Virginia University, priority 2014, dated 2024)

What was measured:
NMDA receptors = conditions: cited from earlier work
[1] = in vivo; cited from earlier work
sigma receptors = conditions: cited from earlier work
[2] = forced swim test (preclinical); format: in vivo; conditions: preclinical studies
[3] = test system: treatment resistant patients; assay: off-label use of transbuccal ketamine in treatment resistant patients (day-hospital, preliminary data)
depression = conditions: cited from earlier work

Row | SMILES | affinity for NMDA receptors (NMDA receptors) | metabolism in the body [1] | affinity for sigma receptors (sigma receptors) | immobility time in the forced swim test [2] | onset of antidepressant effects ([3]; 0.5 mg/kg liquid ketamine held in the mouth (transbuccal), patient report and clinician observation) | side effects ([3]; 0.5 mg/kg liquid ketamine, transbuccal / oral mucosa absorption) | duration of antidepressant effects (depression; in vivo) | onset of antidepressant effects after administration (depression; off-label use) | onset of rapid acting antidepressant effects (depression; sub-anesthetic doses)
1 | COc1ccc2c(c1)[C@]13CCCC[C@@H]1[C@H](C2)N(C)CC3 [DM, dextromethorphan] | moderate affinity | rapidly metabolized in the body to dextrorphan | significant affinity | dose dependently reduces immobility time |  |  |  |  | 
2 | CN(C)CCCN1c2ccccc2CCc2ccccc21 [imipramine] |  |  |  | dose dependently reduces immobility time |  |  |  |  | 
3 | CNC1(c2ccccc2Cl)CCCCC1=O (stereo not drawn) [ketamine] |  |  | significant affinity | dose dependently reduces immobility time | ≤ 24 h | No side effects (except for a transient, mild headache and slight dizziness in one patient each soon after administration) | up to two | ≤ 24 h | two
